Test results from US20230381205A1, “COMPOSITIONS AND METHODS FOR TREATING NEURONAL DISORDERS WITH CANNABINOIDS” (INMED PHARMACEUTICALS INC., priority 2020, published 2023).

Legend:
[1] = tested on: differentiated SH-SY5Y cells; assay: Neurite length / neuritogenesis in differentiated SH-SY5Y cells; format: cell-based, human
Experimental: FIG. 12 provides representative photomicrographs illustrating CBGA mediated changes in neurite elongation and branching in differentiated SH-SY5Y cells in a dose dependent manner. […] FIG. 12 also provides a histogram showing gradual changes in neurite length following treatment with CBGA.
FIG. 14 Morphological characterization of CBGA, THC and CBN mediated changes in differentiated SH-SY5Y cells. SH-SY5Y cells were differentiated with RA (10 μM) for 5 days as indicated. (A) Representative confocal photomicrographs showing changes in the cellular distribution of Tuj1 in RA induced differentiated SH-SY5Y cells following treatment with CBGA, THC and CBN. (B) Histogram showing the effect of CBGA, CBN, THC on neurite length.

[2] = tested on: differentiated SH-SY5Y cells; assay: Confocal immunofluorescence of MAP2 and neurite morphology; format: cell-based, human; settings: FIG. 16
Experimental: SH-SY5Y cells were differentiated with RA (10 μM) for 5 days as indicated.
Accordingly, the effect of CBGA on the expression of MAP-2 was tested.

[3] = tested on: differentiated SH-SY5Y human neuronal cells; assay: MTT assay: neuroprotection from Aβ1-42 induced cytotoxicity; format: cell-based; settings: FIG. 7
Experimental: Cell Culture and Differentiation: The SH-SY5Y human neuronal cell line was derived from neuroblastoma established from a metastatic bone tumor (patient with neuroblastoma). The cells were maintained in DMEM:F12 culture medium supplemented with 10% FBS and 1% Antibiotic-Antimycotic penicillin/streptomycin (growth medium) at 37° C. in a humidified atmosphere of 5% CO2. To induce neuronal differentiation of SH-SY5Y cells, culture media was replaced by a growth medium containing Retinoic Acid (RA) for 4-5 days at 37° C. in a humidified atmosphere of 5% CO2.
Compounds and Dosing Formulations: Selected cannabinoids: CBD, CBDA, CBC, CBG, CBGA, CBN, CBND and Δ^9-THC were procured from Cayman Chemicals and TRC. Ethanol (100%) was used as the solvent to prepare 1 and 10 mM stock solutions. Treatment concentrations for CBGA were prepared at 0.5 μM, 1.5 μM, 5 μM, 10 μM, 15 μM, 20 μM. Treatment concentrations for CBD, CBDA, CBC, CBN, CBND and Δ^9-THC were prepared at 0.5, 1.5, 5 and for CBG at 0.5 μM, 1.5 μM, 5 μM, 10 μM, 15 μM. Treatments were prepared directly in the control medium (DMEM:F12+5% FBS+1% Antibiotic-Antimycotic) by using appropriate stock solutions.
Evaluation of Cytotoxicity and Neuroprotection: Evaluation of cannabinoids neuroprotection and cytotoxicity on differentiated SH-SY5Y human neuronal cells was carried out by MTT (3-(4,5-dimethylthiazol-2-yl)-2,5-diphenyltetrazolium bromide) assay. Initially, cannabinoid cytotoxicity and neuroprotection were evaluated in a primary screen assay without the presence of cytotoxicity inducing insult agents. […] The Retinoic Acid (RA) differentiated SH-SY5Y neuronal cells were seeded onto 96-well plates (10,000 cells/well) in DMEM:F12 complete medium. Cells were differentiated for 4-5 days in the presence of RA.
MTT Assay: For the MTT assay, differentiated SH-SY5Y neuronal cells were treated with cannabinoids at various concentrations for 72 hrs in the presence of STSR at 75 nM, 100 nM, 150 nM and 200 nM or for 24 hrs in the presence of […] at 5 μM, respectively and processed to determine cytotoxicity. Briefly, 5 mg/mL of methylthiazolyldiphenyl-tetrazolium bromide (Sigma-Aldrich) stock solution was prepared in PBS. Following treatment of SH-SY5Y neuronal cells with cannabinoids for 72 hrs, the cells were incubated with 20 μL of MTT stock solution in 200 μL DMEM for 2 hrs at 37° C. Following subsequent washes with PBS, 200 μL of isopropanol was added to each well. The resulting change in color from dissolving formazan salt was immediately quantified using a spectrophotometer (BMG Labtech) at a wavelength of 570 nm. […] The results are illustrated in FIGS. 1-7.

MAP2 = assay: Western blot of MAP2 neuritogenesis marker; format: cell-based, human; settings: FIG. 15
Experimental: FIG. 15 CBGA upregulates the expression of MAP2 neuritogenesis marker. […] Changes in prominent intracellular marker of neurite growth, microtubule-associated protein 2 (MAP2) was determined using western blot analysis. Histogram showing densitometric analysis of relative expression of MAP2. β-Actin was used as a loading control.
For Western blot analysis, control and the treated cells were harvested and lysed in cold lysis buffer (150 mM NaCl, 50 mM Tris-HCl, 1% Triton X-100, 0.1% SDS, 0.5% Sodium deoxycholate, and 1% protease-phosphatase inhibitor mixture). The supernatants were collected and protein concentrations were determined using Bio-Rad protein assay (Bio-Rad Laboratories). Whole cell lysates (10 μg) were subjected to 10% SDS-polyacrylamide electrophoresis and transferred to nitrocellulose membrane. The membranes were blocked with 5% skim milk in TBS-T (Tris-buffered saline with 0.05% Tween-20) for 1 h at RT and blotted overnight in the presence of monoclonal anti-mouse MAP2 (1:1000, Sigma, cat. no. M1406), Tau (1:1000, Invitrogen, cat. no. AHB0042), TUJI (1:5000, BioLegend, cat. no. MMS-435P), BAX (1:1000, Cell signaling, cat. no. 2772) and rabbit polyclonal total and phosphorylated BCL (1:1000, Cell signaling, antibodies #2827 and 2870). […]

Compound: CCCCCc1cc(O)c(C/C=C(\C)CCC=C(C)C)c(O)c1C(=O)O [CBGA, 3-[(2E)-3,7-dimethylocta-2,6-dienyl]-2,4-dihydroxy-6-pentylbenzoic acid]
- neurite length ([1]; 24 hours post treatment, FIG. 14 (B)): increased neurite length significantly
- neuritogenesis (neurite length) ([1]; dose dependent, FIG. 12): significantly increased the neuritogenesis
- MAP-2 expression, corrected total cell fluorescence ([2]; CBGA 10 μM on otherwise untreated cells): promoted upregulation of MAP-2
- neurite morphology ([2]; CBGA alone): elongated neurites and enhanced arborization
- MAP2 expression ([2]; CBGA treatment of Aβ1-42 exposed cells): restores MAP2 expression
- protection from Aβ1-42 induced insult ([3]; 0.15 μM, 0.5 μM, 1.5 μM, 5 μM, 10 μM and 15 μM with Aβ1-42 5 μM, dose-dependent): protected cells
- effect with Aβ1-42 at the highest concentration ([3]; 20 μM with Aβ1-42 5 μM): resulted in cell death
- MAP2 expression, western blot (MAP2; CBGA 10 μM alone): increased the expression of MAP2
- MAP2 expression, western blot (MAP2; CBGA 10 μM with Aβ): abrogates Aβ mediated downregulation of MAP2 expression
